Data on six compounds can be found in patent US4195018A, “3-[(S)-1'-Phenylethylamino]propylaminobleomycin, non-toxic salt thereof, and method for producing same” (Nippon Kayaku Kabushiki Kaisha, priority 1977, dated 1980).

The test system of data set [1] is Mycobacterium smegmatis ATCC 607 (Mycobacterium 607). Description: Antimicrobial potency by the cup method, bleomycin A2 as standard. Type of data set: cell-based. Conditions: for Antimicrobial potency: product batches of the Examples, bleomycin A2 (copper-free form) = 1,000 u/mg; for Antimicrobial potency M. 607: bleomycin A2 standard = 1,000 U/mg. The method, then:
(§1) The antimicrobial potency was assayed by the cup method against Mycobacterium 607 and Bacillus subtilis PCI by using bleomycin A2 as standard (1,000 U/mg).
[Note: The antimicrobial potency was assayed using Mycobacterium smegmatis ATCC 607 as assay organism and assuming the potency of bleomycin A2 (copper-free form) as 1,000 u/mg. The same applies hereinafter.]

A short description of data set [2]: Solubility (physicochemical properties). Conditions: solvents as named in the value.
In a further data set the test system is lung of mice. The data set can be described thus: Toxicity to the lung of mice (pulmonary fibrosis). Type of data set: in vivo, ICR strain mice. Conditions: for Grade: Relative value / Incidence: Relative value: Bleomycin complex = 1.0, 5 mg/kg i.p. x 10 days. The method, then: ICR strain mice (male, 15 weeks old), 12 in number per group, were used. […]. The dose was administered by intraperitoneal injection, once a day, for 10 consecutive days. After administration, the mice were bred for 5 weeks. After observation, the mice were slaughtered and autopsied to determine the extent of pulmonary fibrosis. […].

For a further data set, the system named is HeLa S3 cell. The data set can be described thus: Action on cultivated HeLa S3 cell (growth inhibition). Type of data set: cell-based. Conditions: for ID50: percentage growth inhibition in 72 hours of culture.
Data set [3] has as its system mouse Ehrlich cancer (solid tumor). The data set can be described thus: Carcinostatic activity to mouse Ehrlich cancer (solid tumor). Type of data set: in vivo, ICR strain mice. The following applies: for Percentage inhibition: tumor weight on 15th day vs control; for ID50: Ehrlich solid tumor, 10 doses. The protocol:
Each 2×10^6 cells were transplanted subcutaneously into the inguinal region of ICR strain mice (male, 6 weeks old). After 24 hours, each mouse was administered with test preparations in the same manner as described in 1-2 above. On the 15th day after the subcutaneous transplantation, tumors were removed from each mouse and compared the weight with that of tumors developed in the control group, which had received no treatment, to determine the percentage inhibition.

The test system of the next data set is AH66 ascites hepatoma. The data set can be described thus: Carcinostatic activity against ascites hepatoma (ascites type) in rats. Type of data set: in vivo, Donryu strain rats. Conditions: control = 100. The method, then: Each 1×10^6 AH66 cells were transplanted intraperitoneally into Donryu strain rats. After 24 hours, the test preparation was intraperitoneally administered once a day for 10 consecutive days. During a period of 30 days after the transplantation, the weight of each rat and the number of dead and survival were observed.

In data set [4] the test system is mouse squamous cell carcinoma induced by 20-methylcholanthrene. Description: Inhibitory activity against mouse squamous cell carcinoma induced by 20-methylcholanthrene. Type of data set: in vivo, ddy strain mice. The following applies: for Mortality: 62.5 mcg/mouse i.p. twice a week for 15 weeks; for Percentage inhibition: inhibition of carcinogenesis vs control, 62.5 mcg/mouse i.p. An excerpt:
An acetone solution of 20-MC was topically applied to the sheared back of ddy strain mice (male, 10 weeks old), twice a week, for 18 weeks. After 5 weeks from the beginning of the 20-MC treatment, 62.5 mcg/mouse of the test preparation was intraperitoneally applied, twice a week, during a period of 15 weeks. Within the first week after completion of the administration of test preparation, the region where 20-MC had been applied was pathologically examined for the incidence of carcinogenesis.

For the next data set, the system named is Bacillus subtilis PCI. The data set can be described thus: Antimicrobial potency by the cup method, bleomycin A2 as standard. Format: cell-based. Conditions: bleomycin A2 standard = 1,000 U/mg. The method, then:
as §1

For data set [5], the system named is rats. The data set can be described thus: Acute toxicity in intraperitoneal route (LD50) in rats. Conditions: rat.
The subject of data set [6] is rats.
Setting [7] is: 3.12 mg/kg x 10 i.p., 30 days observation.

In brackets after ≈: the same amount, converted by molar mass. Several values for one entry are separate records, joined by “and”; a condition that tells them apart may be missing. Equal values may be shown once. Entries after “also recorded” stand apart in the source; their conditions may differ.

For the compound `CC(=O)O.CC(=O)O.Cc1c(N)nc([C@H](CC(N)=O)NC[C@H](N)C(N)=O)nc1C(=O)N[C@H](C(=O)N[C@H](C)[C@@H](O)[C@H](C)C(=O)N[C@H](C(=O)NCCc1nc(-c2nc(C(=O)NCCCN[C@@H](C)c3ccccc3)cs2)cs1)[C@@H](C)O)[C@@H](O[C@@H]1O[C@@H](CO)[C@@H](O)[C@H](O)[C@@H]1O[C@H]1O[C@H](CO)[C@@H](O)[C@H](OC(N)=O)[C@@H]1O)c1cnc[nH]1`, in [1], the Antimicrobial potency is given as 7,620 u/mg. Further, the Solubility entry in data set [2] is “Soluble in water, methanol, acetic acid, DMSO, DMF; also recorded: sparingly soluble in dioxane; also recorded: insoluble in ethanol”.
On to `Cc1c(N)nc(C(CC(N)=O)NCC(N)C(N)=O)nc1C(=O)NC(C(=O)NC(C)C(O)C(C)C(=O)NC(C(=O)NCCc1nc(-c2nc(C(=O)NCCCNC(C)c3ccccc3)cs2)cs1)C(C)O)C(OC1OC(CO)C(O)C(O)C1OC1OC(CO)C(O)C(OC(N)=O)C1O)c1cnc[nH]1.O=S(=O)(O)O` (mixture of isomers) [RS form, 3-[(R,S)-1'-phenylethylamino]propylaminobleomycin monosulfate (copper-free form), reference compound], for which the “Grade: Relative value” in the data set with lung of mice is on record as 0.49. The “Incidence: Relative value” in the data set with lung of mice is given as 0.63. Also, the ID50 with HeLa S3 cell came out at 0.80 µg/mL; in data set [3] it was 0.31 mg/kg/day. In addition, the Percentage inhibition worked out at 13 in data set [3] (0.03 mg/kg x 10); 51 in data set [3] (0.1 mg/kg x 10); 51 in data set [3] (0.3 mg/kg x 10); 60 in data set [3] (0.9 mg/kg x 10); 78 in data set [3] (2.7 mg/kg x 10); 47.8 in data set [4]. Moreover, the “Relative value of average survival days” value in the data set on AH66 ascites hepatoma (0.19 mg/kg x 10 i.p.) came to 121; in the data set with AH66 ascites hepatoma (0.39 mg/kg x 10 i.p.) it was 149; in the data set with AH66 ascites hepatoma (0.78 mg/kg x 10 i.p.), 196; in the data set with AH66 ascites hepatoma (1.56 mg/kg x 10 i.p.), 257; in the data set on AH66 ascites hepatoma (setting [7]), 298. Moreover, the Mortality in data set [4] is recorded as 1/12. Besides, the “Antimicrobial potency M. 607” value in data set [1] came out at 7535 U/mg. The “Antimicrobial potency B. Sub.” value in the data set with Bacillus subtilis PCI was 1400 U/mg. Further, the LD50 with rats [5] is on record as 150.6 mg(w)/kg.
With `Cc1c(N)nc([C@H](CC(N)=O)NC[C@H](N)C(N)=O)nc1C(=O)N[C@H](C(=O)N[C@H](C)[C@@H](O)[C@H](C)C(=O)N[C@H](C(=O)NCCc1nc(-c2nc(C(=O)NCCCN[C@@H](C)c3ccccc3)cs2)cs1)[C@@H](C)O)[C@@H](O[C@@H]1O[C@@H](CO)[C@@H](O)[C@H](O)[C@@H]1O[C@H]1O[C@H](CO)[C@@H](O)[C@H](OC(N)=O)[C@@H]1O)c1cnc[nH]1.Cl.Cl.[Cu]` [3-[(S)-1'-phenylethylamino]propylaminobleomycin dihydrochloride (copper-containing form)], the Solubility result in [2] was “Soluble in water, methanol”.
In the case of `Cc1c(N)nc([C@H](CC(N)=O)NC[C@H](N)C(N)=O)nc1C(=O)N[C@H](C(=O)N[C@H](C)[C@@H](O)[C@H](C)C(=O)N[C@H](C(=O)NCCc1nc(-c2nc(C(=O)NCCCN[C@@H](C)c3ccccc3)cs2)cs1)[C@@H](C)O)[C@@H](O[C@@H]1O[C@@H](CO)[C@@H](O)[C@H](O)[C@@H]1O[C@H]1O[C@H](CO)[C@@H](O)[C@H](OC(N)=O)[C@@H]1O)c1cnc[nH]1.Cl.Cl` [NK631 dihydrochloride (copper-free form)], the Antimicrobial potency in [1] is 7,834 u/mg and 7,820 u/mg and 7,845 u/mg. The Solubility entry in data set [2] is given as “Soluble in water, methanol, acetic acid, DMSO, DMF; also recorded: sparingly soluble in dioxane; also recorded: insoluble in ethanol”.
Regarding `Cc1c(N)nc([C@H](CC(N)=O)NC[C@H](N)C(N)=O)nc1C(=O)N[C@H](C(=O)N[C@H](C)[C@@H](O)[C@H](C)C(=O)N[C@H](C(=O)NCCc1nc(-c2nc(C(=O)NCCCN[C@@H](C)c3ccccc3)cs2)cs1)[C@@H](C)O)[C@@H](O[C@@H]1O[C@@H](CO)[C@@H](O)[C@H](O)[C@@H]1O[C@H]1O[C@H](CO)[C@@H](O)[C@H](OC(N)=O)[C@@H]1O)c1cnc[nH]1.O=S(=O)(O)O` [NK631 monosulfate (copper-free form), 3-[(S)-1'-phenylethylamino]-propylaminobleomycin monosulfate (copper-free form)], in the data set with lung of mice, the “Grade: Relative value” turned out to be 0.25. For the same compound, in the data set on lung of mice, the “Incidence: Relative value” came out at 0.36. Besides, in the data set with lung of mice (relative to RS form), the “Fibrosis grade reduced to, as compared with RS form” value is “about 1/2”. Besides, the “Fibrosis incidence reduced to, as compared with RS form” value in the data set on lung of mice (relative to RS form) was “about 1/2”. The “Fibrosis grade reduced to, as compared with bleomycin complex” value in the data set on lung of mice (relative to bleomycin complex) is reported as 1/4. The “Fibrosis incidence reduced to, as compared with bleomycin complex” value in the data set with lung of mice (relative to bleomycin complex) was 1/3. For the same compound, the Percentage inhibition in [3] (0.03 mg/kg x 10) is 19; in data set [3] (0.1 mg/kg x 10), 24; in data set [3] (0.3 mg/kg x 10), 39; in data set [3] (0.9 mg/kg x 10), 68; in data set [3] (2.7 mg/kg x 10), 84; in [4], 47.8. Also, the ID50 in data set [3] is on record as 0.35 mg/kg/day. For the same compound, the “Carcinostatic activity, times as high as that of the Bleomycin complex” value in data set [3] (relative to bleomycin complex) is recorded as “about 1.4 times”. For the same compound, the “Relative value of average survival days” value with AH66 ascites hepatoma (0.19 mg/kg x 10 i.p.) was 116; in the data set with AH66 ascites hepatoma (0.39 mg/kg x 10 i.p.), 163; in the data set with AH66 ascites hepatoma (0.78 mg/kg x 10 i.p.) it was 216; with AH66 ascites hepatoma (1.56 mg/kg x 10 i.p.), 269; in the data set with AH66 ascites hepatoma (setting [7]), 296. The Mortality in data set [4] is on record as 1/12. Besides, the “Antimicrobial potency M. 607” value in data set [1] worked out at 7848 U/mg. For the same compound, the Antimicrobial potency in data set [1] is given as 7,865 u/mg. The “Antimicrobial potency B. Sub.” value in the data set on Bacillus subtilis PCI came to 1550 U/mg. The Solubility entry in [2] is “Soluble in water, methanol, acetic acid, DMSO, DMF; also recorded: sparingly soluble in dioxane; also recorded: insoluble in ethanol”. For the same compound, the “Subacute and chronic toxicity” value with rats [6] and with dogs (dogs) was “comparable to Bleomycin complex” each time. Also, the “Toxicity to the lung” value in the data set with dogs (subacute and chronic toxicity study, species not stated separately) is given as “lower than that of the Bleomycin complex”. In addition, in the data set on rats [5], the LD50 is given as 155.0 mg(w)/kg.
As for `Cc1c(N)nc(C(CC(N)=O)NCC(N)C(N)=O)nc1C(=O)NC(C(=O)NC(C)C(O)C(C)C(=O)NC(C(=O)NCCc1nc(-c2nc(C(=O)NCCCNC(C)c3ccccc3)cs2)cs1)C(C)O)C(OC1OC(CO)C(O)C(O)C1OC1OC(CO)C(O)C(OC(N)=O)C1O)c1c[nH]cn1` [NK631, 3-[(S)-1'-phenylethylamino]propylaminobleomycin], the “Cell growth inhibition compared with Bleomycin complex” value in the data set with HeLa S3 cell (HeLa S3, 72 hours) is listed as “twice as strongly as Bleomycin complex”. The compound further showed an ID50 with HeLa S3 cell of 0.82 µg/mL (≈ 0.556 µM).
